Assay results taken from patent publication EP0454367B1, “Growth hormone releasing factor analogs” (ELI LILLY AND COMPANY, priority 1990, dated 1991).
Starred links: 1 amine or outer side, 2 acyl side, 3 side chain; linkers in the order of their positions; H or OH if unused. Non-standard residues stand in square brackets, D forms with d. Residues, ends and D or L forms follow the SMILES beside them. *: point of attachment. X3 = O=C([C@H](Cc1ccc(O)cc1)N(CC(O)CO)[*:1])[*:2]; X2 = C[C@@H](C(=O)[*:2])N(CC(O)CO)[*:1]; X1 = O=C([C@@H]1CCCN1CC(O)CO)*; NMeA = CN[C@@H](C)C(=O)O

Target: T1, Rat Pituitary Cells (Rattus norvegicus, UniProt Q02644)
T1 sequence (Q02644 23-464): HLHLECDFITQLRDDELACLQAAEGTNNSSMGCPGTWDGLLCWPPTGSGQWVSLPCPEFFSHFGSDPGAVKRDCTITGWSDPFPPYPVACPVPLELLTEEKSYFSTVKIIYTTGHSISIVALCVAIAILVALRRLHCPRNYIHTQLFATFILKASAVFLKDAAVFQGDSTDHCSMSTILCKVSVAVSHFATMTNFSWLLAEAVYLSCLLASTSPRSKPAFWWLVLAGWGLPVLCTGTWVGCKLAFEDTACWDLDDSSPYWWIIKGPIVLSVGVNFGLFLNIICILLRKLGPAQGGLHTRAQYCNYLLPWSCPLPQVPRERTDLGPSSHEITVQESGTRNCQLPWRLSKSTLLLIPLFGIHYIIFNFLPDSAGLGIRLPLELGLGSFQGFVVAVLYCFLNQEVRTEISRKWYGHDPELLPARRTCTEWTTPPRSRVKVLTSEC
Experiment: GRF-analog mediated GH secretion from rat pituitary cells (method of Heiman et al.)
Type: cell-based
Conditions: EC50 [R^12,T^15,R^21,L^27]hGRF(1-29)NH2 / EC50 analog
Protocol: The polypeptide compounds of the invention may be assayed in numerous systems. One in vivo assay is carried out in sodium pentobarbital-anesthetized rats. Wehrenberg et al., Biochem. Biophys. Res. Commun. 109:382 (1982). Growth hormone release is measured in vitro with rat anterior pituitary cells. Heiman et al., Endocrinol. 116:410 (1985). Assays are also performed in wether lambs as described in the Examples provided hereinafter.
Various bGRF peptide analogs were synthesized by the solid phase synthesis method as described in U.S. Patent 4,617,149. The compounds were assayed in rat pituitary cells by the method of Heiman et al., Endocrinol. 116:410 (1985). The analogs are based on the sequence of the first 29 amino acids of human growth hormone releasing factor with the substitutions listed.

Relative Potency (% of std)	Structure (SMILES)
.13 % of std	CC[C@H](C)[C@H](NC(=O)[C@H](C)NC(=O)[C@H](CC(=O)O)NC(=O)[C@H](C)NC(=O)[C@H](Cc1ccc(O)cc1)NC(=O)[C@@H]1CCCN1CC(O)CO)C(=O)N[C@@H](Cc1ccccc1)C(=O)N[C@H](C(=O)N[C@@H](CC(N)=O)C(=O)N[C@@H](CO)C(=O)N[C@@H](Cc1ccc(O)cc1)C(=O)N[C@@H](CCCNC(=N)N)C(=O)N[C@@H](CCCNC(=N)N)C(=O)N[C@H](C(=O)N[C@@H](CC(C)C)C(=O)N[C@H](C(=O)N[C@@H](CCC(N)=O)C(=O)N[C@@H](CC(C)C)C(=O)N[C@@H](CO)C(=O)N[C@@H](C)C(=O)N[C@@H](CCCNC(=N)N)C(=O)N[C@@H](CCCNC(=N)N)C(=O)N[C@@H](CC(C)C)C(=O)N[C@@H](CC(C)C)C(=O)N[C@@H](CCC(N)=O)C(=O)N[C@@H](CC(=O)O)C(=O)N[C@H](C(=O)N[C@@H](CC(C)C)C(=O)N[C@@H](CO)C(=O)N[C@@H](CCCNC(=N)N)C(N)=O)[C@@H](C)CC)[C@@H](C)O)C(C)C)[C@@H](C)O (some centres unmarked) [DHP[P^0,R^12,T^15,R^21,L^27]hGRF(1-29)NH2] (X1-YADAIFTNSYRRVLTQLSARRLLQDILSR-NH2)
.335 % of std	CC[C@H](C)[C@H](NC(=O)[C@H](C)NC(=O)[C@H](CC(=O)O)NC(=O)[C@H](C)NC(=O)[C@H](Cc1ccc(O)cc1)NC(=O)[C@H](C)NCC(O)CO)C(=O)N[C@@H](Cc1ccccc1)C(=O)N[C@H](C(=O)N[C@@H](CC(N)=O)C(=O)N[C@@H](CO)C(=O)N[C@@H](Cc1ccc(O)cc1)C(=O)N[C@@H](CCCNC(=N)N)C(=O)N[C@@H](CCCNC(=N)N)C(=O)N[C@H](C(=O)N[C@@H](CC(C)C)C(=O)N[C@H](C(=O)N[C@@H](CCC(N)=O)C(=O)N[C@@H](CC(C)C)C(=O)N[C@@H](CO)C(=O)N[C@@H](C)C(=O)N[C@@H](CCCNC(=N)N)C(=O)N[C@@H](CCCNC(=N)N)C(=O)N[C@@H](CC(C)C)C(=O)N[C@@H](CC(C)C)C(=O)N[C@@H](CCC(N)=O)C(=O)N[C@@H](CC(=O)O)C(=O)N[C@H](C(=O)N[C@@H](CC(C)C)C(=O)N[C@@H](CO)C(=O)N[C@@H](CCCNC(=N)N)C(N)=O)[C@@H](C)CC)[C@@H](C)O)C(C)C)[C@@H](C)O (some centres unmarked) [DHP[A^0,R^12,T^15,R^21,L^27]hGRF(1-29)NH2] (H-[X2]YADAIFTNSYRRVLTQLSARRLLQDILSR-NH2)
.8 % of std	CC[C@H](C)[C@H](NC(=O)[C@H](C)NC(=O)[C@H](CC(=O)O)NC(=O)[C@H](C)NC(=O)[C@H](Cc1ccc(O)cc1)NCC(O)CO)C(=O)N[C@@H](Cc1ccccc1)C(=O)N[C@H](C(=O)N[C@@H](CC(N)=O)C(=O)N[C@@H](CO)C(=O)N[C@@H](Cc1ccc(O)cc1)C(=O)N[C@@H](CCCNC(=N)N)C(=O)N[C@@H](CCCNC(=N)N)C(=O)N[C@H](C(=O)N[C@@H](CC(C)C)C(=O)N[C@H](C(=O)N[C@@H](CCC(N)=O)C(=O)N[C@@H](CC(C)C)C(=O)N[C@@H](CO)C(=O)N[C@@H](C)C(=O)N[C@@H](CCCNC(=N)N)C(=O)N[C@@H](CCCNC(=N)N)C(=O)N[C@@H](CC(C)C)C(=O)N[C@@H](CC(C)C)C(=O)N[C@@H](CCC(N)=O)C(=O)N[C@@H](CC(=O)O)C(=O)N[C@H](C(=O)N[C@@H](CC(C)C)C(=O)N[C@@H](CO)C(=O)N[C@@H](CCCNC(=N)N)C(N)=O)[C@@H](C)CC)[C@@H](C)O)C(C)C)[C@@H](C)O (some centres unmarked) [DHP[R^12,T^15,R^21,L^27]hGRF(1-29)NH2] (H-[X3]ADAIFTNSYRRVLTQLSARRLLQDILSR-NH2)
.14 % of std	CC[C@H](C)[C@H](NC(=O)[C@H](C)NC(=O)[C@H](CC(=O)O)NC(=O)[C@H](C)NC(=O)[C@H](Cc1ccc(O)cc1)NC(=O)[C@@H]1CCCN1C(=O)[C@@H]1CCCN1CC(O)CO)C(=O)N[C@@H](Cc1ccccc1)C(=O)N[C@H](C(=O)N[C@@H](CC(N)=O)C(=O)N[C@@H](CO)C(=O)N[C@@H](Cc1ccc(O)cc1)C(=O)N[C@@H](CCCNC(=N)N)C(=O)N[C@@H](CCCNC(=N)N)C(=O)N[C@H](C(=O)N[C@@H](CC(C)C)C(=O)N[C@H](C(=O)N[C@@H](CCC(N)=O)C(=O)N[C@@H](CC(C)C)C(=O)N[C@@H](CO)C(=O)N[C@@H](C)C(=O)N[C@@H](CCCNC(=N)N)C(=O)N[C@@H](CCCNC(=N)N)C(=O)N[C@@H](CC(C)C)C(=O)N[C@@H](CC(C)C)C(=O)N[C@@H](CCC(N)=O)C(=O)N[C@@H](CC(=O)O)C(=O)N[C@H](C(=O)N[C@@H](CC(C)C)C(=O)N[C@@H](CO)C(=O)N[C@@H](CCCNC(=N)N)C(N)=O)[C@@H](C)CC)[C@@H](C)O)C(C)C)[C@@H](C)O (some centres unmarked) [DHP[P^-1,P^0,R^12,T^15,R^21,L^27]hGRF(1-29)NH2] (X1-PYADAIFTNSYRRVLTQLSARRLLQDILSR-NH2)
.17 % of std	CC[C@H](C)[C@H](NC(=O)[C@H](C)NC(=O)[C@H](CC(=O)O)NC(=O)[C@H](C)NC(=O)[C@H](Cc1ccc(O)cc1)NC(=O)[C@H](C)NC)C(=O)N[C@@H](Cc1ccccc1)C(=O)N[C@H](C(=O)N[C@@H](CC(N)=O)C(=O)N[C@@H](CO)C(=O)N[C@@H](Cc1ccc(O)cc1)C(=O)N[C@@H](CCCNC(=N)N)C(=O)N[C@@H](CCCNC(=N)N)C(=O)N[C@H](C(=O)N[C@@H](CC(C)C)C(=O)N[C@H](C(=O)N[C@@H](CCC(N)=O)C(=O)N[C@@H](CC(C)C)C(=O)N[C@@H](CO)C(=O)N[C@@H](C)C(=O)N[C@@H](CCCNC(=N)N)C(=O)N[C@@H](CCCNC(=N)N)C(=O)N[C@@H](CC(C)C)C(=O)N[C@@H](CC(C)C)C(=O)N[C@@H](CCC(N)=O)C(=O)N[C@@H](CC(=O)O)C(=O)N[C@H](C(=O)N[C@@H](CC(C)C)C(=O)N[C@@H](CO)C(=O)N[C@@H](CCCNC(=N)N)C(N)=O)[C@@H](C)CC)[C@@H](C)O)C(C)C)[C@@H](C)O [[N-Me-A^0,R^12,T^15,R^21,L^27]hGRF(1-29)NH2] (H-[NMeA]YADAIFTNSYRRVLTQLSARRLLQDILSR-NH2)
